Literature values in patent US20220206017A1, “AEROBIC GLYCOLYSIS AND HYPERMETABOLIC STATES” (priority 2022, published 2022).

Experiments:
hexokinase II = biological target: T1, hexokinase II (Homo sapiens, UniProt P52789); settings: inhibition of hexokinase II; reported value
T1 sequence (P52789 1-917): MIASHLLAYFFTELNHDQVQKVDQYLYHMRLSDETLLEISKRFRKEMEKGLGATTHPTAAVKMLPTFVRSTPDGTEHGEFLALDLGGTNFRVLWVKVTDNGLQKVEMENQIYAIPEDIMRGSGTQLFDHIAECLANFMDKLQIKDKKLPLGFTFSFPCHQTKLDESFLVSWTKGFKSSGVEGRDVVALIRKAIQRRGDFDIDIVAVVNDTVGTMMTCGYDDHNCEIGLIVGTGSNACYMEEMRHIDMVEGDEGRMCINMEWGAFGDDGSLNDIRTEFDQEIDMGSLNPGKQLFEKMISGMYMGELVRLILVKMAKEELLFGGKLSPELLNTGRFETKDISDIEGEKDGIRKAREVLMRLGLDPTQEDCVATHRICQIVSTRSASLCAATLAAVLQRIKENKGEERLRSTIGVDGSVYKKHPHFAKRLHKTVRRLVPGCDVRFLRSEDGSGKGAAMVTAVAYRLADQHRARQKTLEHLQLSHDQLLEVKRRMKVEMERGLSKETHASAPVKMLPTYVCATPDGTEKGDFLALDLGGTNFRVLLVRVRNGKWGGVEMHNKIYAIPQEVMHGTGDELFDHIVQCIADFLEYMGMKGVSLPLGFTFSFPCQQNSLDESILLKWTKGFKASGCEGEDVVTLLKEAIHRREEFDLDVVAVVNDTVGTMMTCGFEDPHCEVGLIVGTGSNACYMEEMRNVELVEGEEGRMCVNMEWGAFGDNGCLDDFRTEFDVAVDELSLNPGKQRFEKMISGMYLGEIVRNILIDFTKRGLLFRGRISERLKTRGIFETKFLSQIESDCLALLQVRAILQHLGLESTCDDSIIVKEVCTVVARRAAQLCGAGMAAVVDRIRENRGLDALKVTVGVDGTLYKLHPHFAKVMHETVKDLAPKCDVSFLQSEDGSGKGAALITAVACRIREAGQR

Red blood cells (RBC) = settings: monotherapy at known clinical doses
[1] = 3BP and DCA intravenous; 2DG oral
melanoma = settings: in vivo; compared to L-Lactic Acid Dimer (LLAD) and phosphate buffered saline control; FIG. 3, ref [4]

Ki (hexokinase II) | Structure (SMILES) | RBC hemolysis (Red blood cells (RBC)) | side effects of administration / clinical use [1] | melanoma cytotoxicity as measured by Ki-67 nuclei (melanoma)
2.9 mM | O=CC[C@@H](O)[C@H](O)[C@H](O)CO [2DG, 2-Deoxy-D-Glucose] | does not cause RBC hemolysis | generally well tolerated | –
– | O=C(O)C(=O)CBr [3BP, 3-Bromopyruvate] | – | pain and phlebitis | –
– | O=C(O)C(Cl)Cl [DCA, Dichloroacetate] | – | neurotoxicity | –
– | C[C@@H](O)C(=O)O[C@H](C)C(=O)O [DLAD, D-Lactic Acid Dimer] | – | – | impressive melanoma cytotoxicity
